Here are results for 5 compounds from patent publication US20070049585A1, “BENZAMIDE AND BENZOATE ANTI-HIV COMPOUNDS” (priority 2004, published 2007).

“Also recorded” adds a separate entry of the source. Read-outs that look alike come from different tables or passages of the source.

One data set concerns HIV-1 IIIB. In words: AV-Finder-HIV Drug Discovery Assay: inhibition of HIV-1 IIIB replication in HeLa indicator cells (GFP fluorescence). The data set is classed as cell-based. An excerpt: In order to study the viral replication in vitro, the GenPhar (Mt. Pleasant, S.C.) AV-Finder™-HIV Drug Discovery Assay was used, that consists of two components: (1) a cloned, continuous-passage HeLa cell line containing an HIV-1 tat-activated molecular switch and a Green Fluorescent Protein reporter gene and (2) a recombinant adenovirus (rAd) vector containing the genes for all three of the HIV-1 receptor/co-receptors (CD4, CXCR4, and CCR5) to transduce into HeLa cells and convert them into highly susceptible HIV-1 indicator cells for use in the assay. The indicator cells over-express the HIV-1 receptor genes and are readily infected with any HIV-1 strain or isolate. […] Infected cells fluoresce brightly so that the inhibition of virus replication by potential antiviral drugs can be readily detected and quantified using standard laboratory plate reader technology.
(§1) Detector plates are set up at day 1 by adding HeLa cells (3000/well) to the adenovirus AD-3R in DMEM containing CCS in 96-well plates and to incubate at 37° C. under 95% humidity and 5% CO2 for 2 days. […] At day 4, the medium was replaced by fresh medium containing the corresponding concentration of the compounds of interest. The infectivity was assessed by measuring the fluorescence on each well at day 7 ([…]). […] At day 5, the medium was replaced by fresh medium containing the corresponding concentration of compounds of interest and the infectivity was assessed by measuring the fluorescence on each well at day 8. Results are expressed as percentage of inhibition of the viral replication.
Procaine HCl was used either alone dissolved in water (SP01) or in an Anticort-like formulation (SP01A) containing zinc sulfate heptahydrate and ascorbic acid at the ratio of about 27-107/1/1.3-2.0 (for example 200 mg procaine HCl with 7.5 mg of zinc sulfate heptahydrate and 12.5 mg of ascorbic acid; Xu, J. et al. J Pharmacol. Exper. Ther. 2003 307:1148-1157) (Samaritan Pharmaceuticals).

The next data set relates to HIV MDR 769 strain. In words: Inhibition of multi-drug resistant HIV MDR 769 strain replication in HeLa cells, without pre-medication. In kind it is cell-based.
Source text: In order to study the viral replication in vitro, the GenPhar (Mt. Pleasant, S.C.) AV-Finder™-HIV Drug Discovery Assay was used, that consists of two components: (1) a cloned, continuous-passage HeLa cell line containing an HIV-1 tat-activated molecular switch and a Green Fluorescent Protein reporter gene and (2) a recombinant adenovirus (rAd) vector containing the genes for all three of the HIV-1 receptor/co-receptors (CD4, CXCR4, and CCR5) to transduce into HeLa cells and convert them into highly susceptible HIV-1 indicator cells for use in the assay. The indicator cells over-express the HIV-1 receptor genes and are readily infected with any HIV-1 strain or isolate. All HIV-1 strains tested thus far, regardless of co-receptor preference, and all subtypes or clades of HIV-1 will infect these indicator cells. Infected cells fluoresce brightly so that the inhibition of virus replication by potential antiviral drugs can be readily detected and quantified using standard laboratory plate reader technology.
as §1

A further data set has as its system HeLa cells. In words: MTT cytotoxicity assay (mitochondrial integrity). In kind it is cell-based, human. On the procedure: Following the above described cell treatment protocol, the levels of cellular 3-(4,5-dimethylthiazol-2-yl)-2,5-diphenyl tetrazolium bromide (MTT) reduction, a measure of mitochondrial integrity, were determined in order to examine whether the compounds tested were cytotoxic.
A general note: Tetrazolium dyes change colour on reduction, which living cells bring about.

Turning to `Nc1ccn([C@@H]2CS[C@H](CO)O2)c(=O)n1` [3TC], the “inhibition of viral replication reached (maximal)” value with HIV-1 IIIB (no pre-medication, dose-dependent, maximal concentrations) was found to be 90%.
A word on the IC50: it is the concentration at which inhibition is half-maximal. `Cc1cn([C@H]2C[C@H](N=[N+]=[N-])[C@@H](CO)O2)c(=O)[nH]c1=O` [AZT]: in the data set with HIV-1 IIIB (24 hours pre-medication, 30 pM), the “inhibition of the replication at the peak concentration” value is less than 30%. In addition, the IC50 stood at 0.03 µM in the data set on HIV-1 IIIB (48 hours pretreatment) and 161 µM with HeLa cells. Also, the “effect on HIV MDR 769 strain replication” value in the data set on HIV MDR 769 strain is reported as “ineffective; also recorded: not effective”.
As to `CCN(CC)CCOC(=O)c1ccc(N)cc1` [SP01, 4-aminobenzoic acid 2-(diethylamino)ethyl ester], in the data set on HIV-1 IIIB (48 hours pretreatment, all concentrations tested), the “inhibition of HIV replication” value is reported as 75%. Further, the “efficacy in reducing HIV-1 IIIB replication compared with AZT, ddI or 3TC” value in the data set on HIV-1 IIIB (human cells) is listed as “efficacy higher than AZT, ddI or 3TC”. The “efficacy of inhibition of HIV-1 IIIB viral replication compared with 3TC” value in the data set with HIV-1 IIIB (no pre-medication, concentrations up to 0.1 μM) is given as “higher efficacy than the classical antiviral agent 3TC”. The entries for the “effect on HIV MDR 769 strain replication” value in the data set with HIV MDR 769 strain and in the data set on HIV MDR 769 strain (concentrations higher than 1 nM) were “effectively blocked” and “not effective”, respectively. Also, the “inhibition of HIV MDR 769 viral replication” value in the data set with HIV MDR 769 strain (concentrations up to 1 nM) is 75%. Besides, the “cell toxicity by MTT cytotoxicity assay” value with HeLa cells (all concentrations tested, up to 100 μM) is “devoid of cell toxicity”.
As for `CCN(CC)CCNC(=O)c1ccc(N)cc1` [SP100, procainamide], the “effect on HIV MDR 769 strain replication” value in the data set with HIV MDR 769 strain was “effectively blocked”.
As for `O=c1[nH]cnc2c1ncn2[C@H]1CC[C@@H](CO)O1` [ddI], in the data set with HIV-1 IIIB (no pre-medication, 0.01 μM), the “inhibition of viral replication (strongest inhibition)” value was found to be 26.37±26.11%. Also, it took 89 µM to reach half-maximal inhibition in the data set on HeLa cells (IC50).
